Experimental data as given in patent US4877893A, “Process for the preparation of 2-(O-alkyl)-2-thio-1,3,2-oxathiophospholanes” (priority 1987, dated 1989).

Legend:
Test in all cases: Fungicidal effect on infected agar nutrient media, colony diameter
Format in all cases: cell-based
Sclerotinia sclerotinia = details: 3rd day after treatment, untreated control 41.7
Experimental: (§1) Agar nutrient media (Diameter 70 MM, thickness 10 mm) infected by Sclerotonia sclerotinia suspension are treated with 20 EC formulations prepared according to Example 27 and comprising 1, 10, 100 and 1000 ppm, respectively of the active ingredient of the Formula I. The fungicidal effect of the compositions is evaluated on the 3rd day after treatment by measuring the diameter of the Fungi colonies.

Alternaria tenuis = details: 5th day after treatment, untreated control 36.8
Experimental: as §1
The series of measurements according to Example 35 is carried out except that the agar nutrient media are infected by Alternaria Tenius and evaluation is accomplished on the 5th day after treatment.

Penicillium cyclopium = details: 7th day after treatment, untreated 26.5
Experimental: as §1
The series of measureents described in Example 35 is carried out except that the agar nutrient media are infected by a Penicillium cyclopium Fungi strain and the test is evaluated on the 7th day after treatment.

Row | SMILES | Diameter of colony (mm) (Sclerotinia sclerotinia; 1 ppm) | Diameter of colony (mm) (Sclerotinia sclerotinia; 10 ppm) | Diameter of colony (mm) (Sclerotinia sclerotinia; 100 ppm) | Diameter of colony (mm) (Sclerotinia sclerotinia; 1000 ppm) | Diameter of colony (mm) (Alternaria tenuis; 1 ppm) | Diameter of colony (mm) (Alternaria tenuis; 10 ppm) | Diameter of colony (mm) (Alternaria tenuis; 100 ppm) | Diameter of colony (mm) (Alternaria tenuis; 1000 ppm) | Diameter of colony (mm) (Penicillium cyclopium; 1 ppm) | Diameter of colony (mm) (Penicillium cyclopium; 10 ppm) | Diameter of colony (mm) (Penicillium cyclopium; 100 ppm) | Diameter of colony (mm) (Penicillium cyclopium; 1000 ppm)
1 | CC1COP(=S)(OC(C)C(C)I)S1 (stereo not drawn) [Compound 33] | 33.2 | 26.4 | 0 | 0 | 33.0 | 21.3 | 6.3 | 0 | 22.3 | 20.7 | 6.1 | 0
2 | CC(CCl)OP1(=S)OC(C)C(C)S1 (stereo not drawn) [Compound 34, 2-(0-1'-methyl-2'-chloroethyl)-2-thio-4,5-dimethyl-1,3,2-oxathiophospholane] | 34.6 | 23.9 | 1.3 | 0 | 30.3 | 25.9 | 5.7 | 0 | 19.7 | 16.5 | 4.9 | 0
3 | CC(CBr)OP1(=S)OC(C)C(C)S1 (stereo not drawn) [Compound 35] | 38.1 | 25.7 | 2.6 | 0 | 34.7 | 27.1 | 6.2 | 0 | 25.1 | 14.7 | 8.3 | 0
4 | CC(CI)OP1(=S)OC(C)C(C)S1 (stereo not drawn) [Compound 36] | 37.2 | 26.9 | 0 | 0 | 32.5 | 20.7 | 4.3 | 0 | 23.2 | 16.8 | 7.2 | 0
5 | CC1CSP(=S)(OC(C)C(C)Cl)O1 (stereo not drawn) [Compound 37] | 39.2 | 27.1 | 0 | 0 | 30.8 | 21.9 | 5.6 | 0 | 19.9 | 17.5 | 6.6 | 0
6 | CC1CSP(=S)(OC(C)C(C)Br)O1 (stereo not drawn) [Compound 38] | 37.8 | 31.3 | 0 | 0 | 30.2 | 24.5 | 6.9 | 0 | 24.3 | 18.6 | 7.4 | 0
7 | CC1CSP(=S)(OC(C)C(C)I)O1 (stereo not drawn) [Compound 39] | 37.2 | 30.2 | 3.6 | 0 | 34.6 | 23.3 | 7.3 | 0 | 21.1 | 15.8 | 4.7 | 0
8 | CC(Cl)COP1(=S)OC(C)C(C)S1 (stereo not drawn) [Compound 40] | 34.9 | 28.0 | 1.9 | 0 | 31.3 | 21.7 | 6.1 | 0 | 18.9 | 20.0 | 6.8 | 0
9 | CC(Br)COP1(=S)OC(C)C(C)S1 (stereo not drawn) [Compound 41] | 37.6 | 30.0 | 2.6 | 0 | 33.8 | 25.1 | 7.3 | 0 | 24.1 | 16.4 | 4.9 | 0
10 | CC(I)COP1(=S)OC(C)C(C)S1 (stereo not drawn) [Compound 42] | 38.2 | 31.2 | 3.5 | 0 | 32.1 | 20.4 | 9.0 | 0 | 22.2 | 17.2 | 7.5 | 0
11 | CC(Cl)C(C)OP1(=S)OC(C)C(C)S1 (stereo not drawn) [Compound 43, 2-(0-1',2'-dimethyl-2'-chloroethyl)-2-thio-4,5-dimethyl-1,3,2-oxathiophospholane] | 37.6 | 28.2 | 2.4 | 0 | 32.4 | 23.3 | 6.2 | 0 | 25.2 | 18.4 | 6.3 | 0
12 | CC(Br)C(C)OP1(=S)OC(C)C(C)S1 (stereo not drawn) [Compound 44] | 35.4 | 28.1 | 4.0 | 0 | 33.5 | 26.2 | 7.0 | 0 | 17.9 | 17.1 | 5.1 | 0
13 | CC(I)C(C)OP1(=S)OC(C)C(C)S1 (stereo not drawn) [Compound 45] | 39.2 | 30.0 | 1.6 | 0 | 34.0 | 20.4 | 5.7 | 0 | 24.2 | 15.5 | 6.0 | 0
14 | CCCOP1(=S)OCCS1 (stereo not drawn) [Compound 46, 2-(0-n-propyl)-2-thio-1,3,2-oxathiophospholane] | 34.6 | 28.7 | 4.2 | 0 | 34.2 | 24.3 | 5.8 | 0 | 25.1 | 18.9 | 7.9 | 0
15 | CCCOP1(=S)OC(C)CS1 (stereo not drawn) [Compound 47, 2-(0-n-propyl)-2-thio-5-methyl-1,3,2-oxathiophospholane] | 33.9 | 30.2 | 3.9 | 0 | 33.5 | 25.7 | 7.0 | 0 | 23.8 | 20.1 | 8.3 | 0
16 | CCCOP1(=S)OCC(C)S1 (stereo not drawn) [Compound 48, 2-(0-n-propyl)-2-thio-4-methyl-1,3,2-oxathiophospholane] | 35.8 | 29.1 | 2.8 | 0 | 36.1 | 24.6 | 6.3 | 0 | 24.2 | 19.2 | 8.5 | 0
17 | CCC(C)OP1(=S)OCCS1 (stereo not drawn) [Compound 49] | 37.2 | 30.4 | 4.0 | 0 | 34.3 | 25.9 | 7.0 | 0 | 26.3 | 20.3 | 7.5 | 0
